Some test systems named below: SNB-19 CNS; NCI-H23 lung; OVCAR-3 ovarian; SK-MEL-2 melanoma; SK-MEL-5 melanoma; 786-0 renal; SF-539 CNS; HL-60(TB) leukemia; IGROV1 ovarian; MDA-MB-435; COLO 205 colon.
What all share (test): NCI-60 cell line screen, 48 h

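These data come from cells grown in 96-well plates and exposed to compound for 48 hours at five concentrations. TGI: concentration producing complete growth inhibition.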

With `O=[N+]([O-])c1ccc2c(c1)c(OCc1ccccc1)nn2Cc1ccccc1`, the TGI in the test with SNB-19 CNS, in the test with NCI-H23 lung, in the test with OVCAR-3 ovarian, with SK-MEL-2 melanoma, in the test with SK-MEL-5 melanoma and with 786-0 renal was more than 100 µM in each case. In addition, the TGI in the test on SF-539 CNS, in the test on HL-60(TB) leukemia, in the test with IGROV1 ovarian and in the test on MDA-MB-435 was more than 100 µM throughout.
Take `COC(=O)c1ccccc1CC1Cc2ccc3c(c2C1=O)CCCC3` (stereo not drawn): the TGI with SNB-19 CNS was more than 100 µM; with NCI-H23 lung, more than 100 µM; in the test with OVCAR-3 ovarian it was more than 100 µM; in the test with SK-MEL-2 melanoma, more than 76.3 µM; with SK-MEL-5 melanoma, 34.8 µM; in the test with COLO 205 colon, more than 100 µM. Also, the TGI with 786-0 renal, in the test with SF-539 CNS, in the test on HL-60(TB) leukemia, in the test with IGROV1 ovarian and with MDA-MB-435 was more than 100 µM each time.
As to `Cc1ccc(-c2n[nH]c(=O)n2N2C(=O)c3ccccc3C2=O)cc1`, the TGI in the test on SNB-19 CNS, in the test with NCI-H23 lung, in the test on OVCAR-3 ovarian, in the test with SK-MEL-2 melanoma, in the test on SK-MEL-5 melanoma and with 786-0 renal was more than 100 µM in each case. Also, the TGI in the test on SF-539 CNS, in the test on HL-60(TB) leukemia, in the test with IGROV1 ovarian and in the test on MDA-MB-435 was more than 100 µM throughout.
As for `O=C1/C(=C/c2ccccc2)N=C2Sc3c(nc[nH]c3=O)N12`, the TGI in the test on SNB-19 CNS, with NCI-H23 lung, in the test with OVCAR-3 ovarian, in the test with SK-MEL-2 melanoma, in the test with SK-MEL-5 melanoma and in the test on COLO 205 colon was more than 100 µM in each case. For the same compound, the TGI with 786-0 renal, in the test with SF-539 CNS, with HL-60(TB) leukemia, with IGROV1 ovarian and in the test with MDA-MB-435 was more than 100 µM throughout.
In the case of `Cc1cc(Cc2cc(C)c(N)cc2N)c(N)cc1N`, the TGI in the test on SNB-19 CNS, in the test on NCI-H23 lung, in the test with OVCAR-3 ovarian, in the test on SK-MEL-2 melanoma, in the test on SK-MEL-5 melanoma and with COLO 205 colon was more than 100 µM each time. Besides, the TGI with 786-0 renal, in the test on SF-539 CNS, in the test on HL-60(TB) leukemia, with IGROV1 ovarian and in the test on MDA-MB-435 was more than 100 µM in each case.
As for `CCOC(=O)C1(C/C=C/CBr)Cc2ccccc2C1=O` (stereo not drawn), the TGI in the test on SNB-19 CNS is 37.2 µM; in the test with NCI-H23 lung it was 4.47 µM; in the test on OVCAR-3 ovarian, 4.54 µM; in the test with SK-MEL-2 melanoma, 6.13 µM; in the test with SK-MEL-5 melanoma, 7.66 µM; in the test on COLO 205 colon, 11.7 µM. The TGI in the test with 786-0 renal is 25.8 µM; with SF-539 CNS it was 3.39 µM; with HL-60(TB) leukemia, more than 100 µM; in the test on IGROV1 ovarian, 10.3 µM; with MDA-MB-435, 3.19 µM.
For the compound `COC(=O)C1SC(SC)=NC12c1ccccc1Nc1ccccc12` (stereo not drawn), the TGI with SNB-19 CNS was more than 100 µM; with NCI-H23 lung it was 38.9 µM; in the test on OVCAR-3 ovarian, 45.8 µM; in the test on SK-MEL-2 melanoma, 47.3 µM; in the test on SK-MEL-5 melanoma, 31 µM; in the test with COLO 205 colon, 39.3 µM. The TGI was more than 100 µM with 786-0 renal; 35.4 µM in the test on SF-539 CNS; 87.9 µM in the test with HL-60(TB) leukemia; more than 100 µM with IGROV1 ovarian; 67.8 µM in the test with MDA-MB-435.
For the compound `CC(C)(C)OC(=O)N[C@H]1CCN(C2CCCCC2)C1=O`, the TGI in the test on SNB-19 CNS, in the test on NCI-H23 lung, in the test with SK-MEL-2 melanoma, in the test on SK-MEL-5 melanoma, in the test on COLO 205 colon and in the test on 786-0 renal was more than 100 µM throughout. In addition, the TGI in the test with SF-539 CNS, in the test on HL-60(TB) leukemia, with IGROV1 ovarian and in the test with MDA-MB-435 was more than 100 µM throughout.
For `COc1ccc(COCCOCc2nc(C#N)c(N)o2)cc1`, the TGI with NCI-H23 lung, with OVCAR-3 ovarian, with SK-MEL-2 melanoma, in the test on SK-MEL-5 melanoma, with COLO 205 colon and with 786-0 renal was more than 100 µM throughout. Further, the TGI in the test with SF-539 CNS, in the test with HL-60(TB) leukemia, in the test on IGROV1 ovarian and in the test on MDA-MB-435 was more than 100 µM throughout.
Regarding `O=c1c2cc([N+](=O)[O-])cnc2sn1-c1ccc([N+](=O)[O-])cc1`, the TGI in the test on SNB-19 CNS was more than 100 µM; in the test with NCI-H23 lung, more than 100 µM; in the test with OVCAR-3 ovarian, more than 100 µM; with SK-MEL-2 melanoma it was 88.1 µM; in the test on SK-MEL-5 melanoma, more than 100 µM; in the test on COLO 205 colon, 37.3 µM. The TGI was more than 100 µM in the test on 786-0 renal; more than 100 µM in the test on SF-539 CNS; 64.2 µM with HL-60(TB) leukemia; more than 100 µM in the test on IGROV1 ovarian; more than 100 µM with MDA-MB-435.
Turning to `N#Cc1c(N2CCCC2)ncn(-c2ccccc2)c1=O`, the TGI in the test on SNB-19 CNS, in the test on NCI-H23 lung, with OVCAR-3 ovarian, in the test on SK-MEL-2 melanoma, with SK-MEL-5 melanoma and with COLO 205 colon was more than 100 µM throughout. The TGI in the test on 786-0 renal, in the test on SF-539 CNS, in the test on HL-60(TB) leukemia, in the test with IGROV1 ovarian and in the test on MDA-MB-435 was more than 100 µM in each case.
With `O=c1[nH]c(Nc2cccc(CC(F)(F)F)c2)nc2nc[nH]c12`, the TGI in the test with SNB-19 CNS, in the test with NCI-H23 lung, in the test on OVCAR-3 ovarian, in the test on SK-MEL-2 melanoma, with SK-MEL-5 melanoma and in the test with COLO 205 colon was more than 100 µM each time. Besides, the TGI in the test on 786-0 renal, in the test on SF-539 CNS, in the test with HL-60(TB) leukemia, in the test with IGROV1 ovarian and with MDA-MB-435 was more than 100 µM in each case.

(Values after PubChem BioAssay (NCI).)
